Key:
Jurkat = assay: Antitumor activity against Jurkat cells; format: functional, cell-based; settings: Homo sapiens
HeLa = assay: Antitumor activity against HeLa cells; format: functional, cell-based; settings: Homo sapiens

IC50 (Jurkat) | IC50 (HeLa) | SMILES
0.0013 µM | 0.24 µM | COc1ccc(C(=O)O[C@H]2[C@H](O[C@H]3[C@H](OC(C)=O)[C@@H](O[C@H]4C[C@H]5[C@@H]6CC=C7C[C@@H](O)CC[C@]7(C)[C@H]6CC[C@]5(C)[C@@]4(O)[C@H](C)C(=O)OCC(C)C)OC[C@H]3O)OC[C@@H](O)[C@@H]2O)cc1
14.5 µM | 2.6 µM | COc1ccc(C(=O)O[C@H]2[C@H](O[C@H]3[C@H](OC(C)=O)[C@@H](O[C@H]4C[C@H]5C[C@@H](O)CC[C@]5(C)[C@@]4(O)[C@H](C)C(=O)OCC(C)C)OC[C@H]3O)OC[C@@H](O)[C@@H]2O)cc1
8.9 µM | 14.9 µM | COc1ccc(C(=O)O[C@H]2[C@H](O[C@H]3[C@H](OC(C)=O)[C@@H](O[C@H]4C[C@H]5CCCC[C@]5(C)[C@@]4(O)[C@H](C)C(=O)OCC(C)C)OC[C@H]3O)OC[C@@H](O)[C@@H]2O)cc1
21.1 µM | 0.8 µM | COc1ccc(C(=O)O[C@H]2[C@H](O[C@H]3[C@H](OC(C)=O)[C@@H](O[C@H]4C[C@H]5C[C@@H](O)CC[C@]5(C)[C@@]4(O)[C@@H](C)C(=O)OCC(C)C)OC[C@H]3O)OC[C@@H](O)[C@@H]2O)cc1

— ChEMBL document CHEMBL1137476, “Synthesis of the A,B-ring-truncated OSW saponin analogs and their antitumor activities” (Bioorg Med Chem Lett, 2007)
